# Measured values as given in PubChem BioAssay AID651703 (Broad Institute, 2012).
# Target: Transforming acidic coiled-coil-containing protein 3 (Homo sapiens) (UniProt Q9Y6A5)
# Assay: inhibition of ARNT PAS-B/TACC3 complex formation – biochemical, AlphaScreen, cherry-picked samples, confirmation (AID 651703);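 further: TACC3 partner is the GST-tagged E629A mutant dimer; hits lower the signal meaning they disrupt ARNT binding to TACC3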
# Conditions: AlphaScreen His-ARNT PAS-B / GST-TACC3 binding, luminescence
row,SMILES,AC50
1,Nc1nc(CN2CCCCCC2)nc(Nc2ccccc2)n1,59 µM
2,O=C(COC(=O)c1cccs1)Nc1nnc(-c2ccccc2)o1,14.1 µM
3,Cc1ccc(Nc2nc(-c3ccccn3)nnc2-c2ccccc2)cn1,< 0.5 µM
4,CCCCCc1cc(=O)oc2c(C(CCN(CC)CC)c3ccc(N(C)C)cc3)c(OC)cc(OC)c12 (stereo unspecified),5.02 µM
5,Cc1[nH][nH]c(=O)c1C(c1ccc(-c2ccc(C(=O)O)cc2)o1)c1c(C)[nH][nH]c1=O,64.1 µM
6,CCN(C(=O)Cc1nc(N)n[nH]1)C1(C(=O)Nc2ccccc2)CCCCC1,20 µM
7,O=C(NNc1ccccn1)C(=O)NNS(=O)(=O)c1ccc(Cl)cc1,15.6 µM
8,O=C(NCCCn1ccnc1)C(=O)NCC(c1ccco1)N1CCN(c2ccccc2)CC1 (stereo unspecified),6.85 µM
9,c1ccc(-c2cnnc(-c3ccccn3)n2)cc1,2.57 µM
10,Cc1nc(Nc2ccc(C(=O)O)cc2)nc(Nc2ccc(C(=O)O)cc2)c1[N+](=O)[O-],22.1 µM
11,O=[N+]([O-])c1cccc(/C=N/Nc2nc(NCc3ccccc3)nc(N3CCOCC3)n2)c1O,2.29 µM
12,Cc1cc(=O)[nH]c(-n2[nH]c3c(c2=O)CCCC3)n1,39.3 µM
13,Cc1n[nH]c(=O)nc1N/N=C/c1ccco1,42.5 µM
14,O=C(Nc1nc(-c2ccccn2)cs1)c1cc(S(=O)(=O)N2CCOCC2)ccc1F,4.43 µM
15,O=C(Nc1nnc(C2=COCCO2)o1)c1ccc(Cl)cc1,17.7 µM
16,Cc1[nH][nH]c(=O)c1C(c1ccc(-c2ccc(F)cc2)o1)c1c(C)[nH][nH]c1=O,19.6 µM
17,c1ccc(-c2n[nH]c(-c3ccccn3)n2)nc1,< 0.5 µM
18,C(=N\Nc1ccc2nncn2n1)/c1ccccn1,14 µM
19,O=C(Nc1nnc(-c2ccco2)o1)c1ccc(S(=O)(=O)N2CCOCC2)cc1,36.1 µM
20,C/C(CC(=O)Nc1ccc(N(C)C)cc1)=N\NC(=O)c1ccccn1,12.3 µM
21,O=S1(=O)N=C(N(CCO)/N=C/C=C/c2ccccc2)c2ccccc21,53.9 µM
22,O=C(CSc1cccc2cccnc12)Nc1cc(C(=O)O)cc(C(=O)O)c1,17.9 µM
23,c1ccc(-c2nn[nH]n2)nc1,5.22 µM
24,COc1ccc(C2C(C#N)=C(N)Oc3n[nH]c(-c4ccccn4)c32)c(OC)c1OC (stereo unspecified),53.3 µM
25,Cc1cccc(C)c1Nc1c(-c2ccccn2)nc2ccccn12,8.6 µM
26,O=C(CN1C(=O)/C(=C\c2cccs2)SC1=S)Nc1cccc(C(=O)O)c1,26.3 µM
27,COc1ccccc1Nc1cc2cc(Br)ccc2c(=O)[nH]1,16.8 µM
28,NCCc1cnc[nH]1,23.1 µM
29,COc1cc(C2C(C#N)=C(N)Oc3n[nH]c(-c4ccccn4)c32)cc(OC)c1OC (stereo unspecified),19.7 µM

# Results, then the molecule that gave them:
row,AC50,SMILES
1,33.4 µM,COc1ccc(O)c(/C=N\NC(=O)CCn2nnc3ccccc32)c1
2,8.21 µM,CCCC(=O)NC(c1ccco1)c1cc([N+](=O)[O-])c2cccnc2c1O (stereo unspecified)
3,5.58 µM,CCC(=O)NC(c1cc(Cl)c2cccnc2c1O)C(C)C (stereo unspecified)
4,58.6 µM,COc1ccc(C2C(C#N)=C(N)Oc3c2ccc2cccnc32)cc1OC (stereo unspecified)
5,10.2 µM,C/C(=N\NC(=O)Cc1ccc(Cl)cc1)c1ccccn1
6,< 0.5 µM,Oc1ccc(Cn2ccnc2)c2cccnc12
7,22.9 µM,CSCC[C@H](NC(=O)OC(C)(C)C)C(=O)N/N=C/c1cccc2cccnc12
8,1.77 µM,CN1CCN(c2cc(-c3cc(O)c4ncccc4c3)ccn2)CC1
9,5.3 µM,CCCC(=O)NC(c1ccc(N(C)C)cc1)c1ccc2cccnc2c1O (stereo unspecified)
10,9.92 µM,O=C(CSc1nnc(-c2ccccn2)o1)Nc1ccccc1Cl
11,9.34 µM,CCC(=O)NC(c1cc(Cl)c2cccnc2c1O)C1CC1 (stereo unspecified)
12,48.1 µM,O=C(O)CSc1cc(NS(=O)(=O)c2cccc([N+](=O)[O-])c2)c2ccccc2c1O
13,0.625 µM,CC(C)(C)OC(=O)N1CCN(Cc2ccc(O)c3ncccc23)CC1
14,33.5 µM,COc1ccc(CCNC(=O)CSc2nnc3ccc(-c4ccccn4)nn23)cc1
15,16.9 µM,O=S(=O)(N[C@H]1CC[C@@H](CCn2cc(-c3ccccn3)nn2)O[C@@H]1CO)c1cccc(Cl)c1
16,20.5 µM,Cn1c(-c2ccc(Cl)cc2)cnc1N
17,2.48 µM,Oc1ccc(CN2CCC(Cc3ccccc3)CC2)c2cccnc12
18,53.9 µM,CCOc1ccc2c(c1)c(N=NC(=N)N)c(O)n2C
19,6.95 µM,Cc1cccc(Nc2nc(-c3ccccn3)cs2)n1
20,52.5 µM,COc1ccc(C2c3ccc(O)cc3Oc3ncn4nc(-c5ccccn5)nc4c32)cc1OC (stereo unspecified)
21,8.9 µM,Oc1cc(NCc2ccc(F)cc2)cc2cccnc12
22,67.5 µM,O=C(NCCCn1ccnc1)c1ccc2nccnc2c1
23,12.7 µM,COc1ccc(NC(=O)N[C@@H]2CC[C@H](CCn3cc(-c4ccccn4)nn3)O[C@H]2CO)cc1
24,64.7 µM,Cc1ccc(Cn2cccc(NS(C)(=O)=O)c2=O)cc1
25,5.13 µM,O=[N+]([O-])c1cc(Cl)cc(/C=N\Nc2ccccn2)c1O
26,6.22 µM,Oc1ccc(C2=Nn3c(nnc3-c3ccco3)SC2)cc1O
27,1.8 µM,O=C(O)c1cc2c(cn1)[nH]c1ccccc12
